Test results as given in patent US9809587B2, “Pesticidally active heterocyclic derivatives with sulphur containing substituents” (Syngenta Participations AG, priority 2014, dated 2017).

Key:
Type in all cases: in vivo
[1] = tested on: Bemisia tabaci (Cotton White Fly); test: Bemisia tabaci (cotton white fly), sprayed cotton leaf discs; conditions: foliar, 144 h, application rate of 200 ppm, adult white flies on cotton leaf discs, 6 days after incubation
Description: Example B1: Bemisia tabaci (Cotton White Fly)
Cotton leaf discs were placed on agar in 24-well microtiter plates and sprayed with aqueous test solutions prepared from 10′000 ppm DMSO stock solutions. After drying the leaf discs were infested with adult white flies. The samples were checked for mortality 6 days after incubation.

[2] = tested on: Diabrotica balteata (Corn Root Worm); test: Diabrotica balteata (corn root worm), sprayed maize sprouts; conditions: 96 h, application rate of 200 ppm, L2 larvae on maize sprouts, 4 days after infestation
Description: Example B2: Diabrotica balteata (Corn Root Worm)
Maize sprouts, placed on an agar layer in 24-well microtiter plates were treated with aqueous test solutions prepared from 10′000 ppm DMSO stock solutions by spraying. After drying, the plates were infested with L2 larvae (6 to 10 per well). The samples were assessed for mortality and growth inhibition in comparison to untreated samples 4 days after infestation.

[3] = tested on: Euschistus heros (Neotropical Brown Stink Bug); test: Euschistus heros (neotropical brown stink bug), sprayed soybean leaf; conditions: 120 h, application rate of 200 ppm, N-2 nymphs on soybean leaf, 5 days after infestation
Description: Example B3: Euschistus heros (Neotropical Brown Stink Bug)
Soybean leaf on agar in 24-well microtiter plates were sprayed with aqueous test solutions prepared from 10′000 ppm DMSO stock solutions. After drying the leaf were infested with N-2 nymphs. The samples were assessed for mortality in comparison to untreated samples 5 days after infestation.

[4] = tested on: Myzus persicae (Green Peach Aphid); test: Myzus persicae (green peach aphid), sprayed sunflower leaf discs; conditions: foliar, 144 h, application rate of 200 ppm, mixed ages on sunflower leaf discs, 6 days after infestation
Description: Example B4: Myzus persicae (Green Peach Aphid)
(§1) Sunflower leaf discs were placed on agar in a 24-well microtiter plate and sprayed with aqueous test solutions prepared from 10′000 ppm DMSO stock solutions. After drying, the leaf discs were infested with an aphid population of mixed ages. The samples were assessed for mortality 6 days after infestation.

[5] = tested on: Plutella xylostella (Diamond Back Moth); test: Plutella xylostella (diamond back moth), treated artificial diet; conditions: 120 h, application rate of 200 ppm, L2 larvae on artificial diet, 5 days after infestation, read-out: effect in at least one of the two categories (mortality or growth inhibition)
Procedure, shortened: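 Artificial diet treated with aqueous dilutions of DMSO stocks (10′000 ppm stock), dried, then infested with 10-15 L2 larvae per well. Mortality and growth inhibition assessed versus untreated controls 5 days after infestation.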

[6] = tested on: Spodoptera littoralis (Egyqptian Cotton Leaf Worm); test: Spodoptera littoralis (Egyptian cotton leaf worm), sprayed cotton leaf discs; conditions: foliar, 72 h, application rate of 200 ppm, L1 larvae on cotton leaf discs, 3 days after infestation
Procedure, shortened: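 Cotton leaf discs on agar were sprayed with aqueous dilutions made from 10′000 ppm DMSO stocks, then infested after drying with five L1 larvae. Mortality, anti-feedant effect and growth inhibition were scored against untreated discs 3 days after infestation. Control means at least one of these exceeds the untreated sample.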

[7] = tested on: Spodoptera littoralis (Egyqptian Cotton Leaf Worm); test: Spodoptera littoralis (Egyptian cotton leaf worm), compound in agar taken up by lettuce roots; conditions: 144 h, test rate of 12.5 ppm, uptake by lettuce roots from agar, 6 days after infestation, read-out: effect in at least one of the three categories (mortality, anti-feedancy, or growth inhibition)
Procedure, shortened: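 Compound mixed into agar from a 10′000 ppm DMSO stock and taken up over 7 days by lettuce roots; cut leaves then infested with Spodoptera eggs. Mortality, anti-feedant effect and growth inhibition scored against untreated samples 6 days after infestation.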

[8] = tested on: Thrips tabaci (Onion Thrips); test: Thrips tabaci (onion thrips), sprayed sunflower leaf discs; conditions: foliar, 144 h, application rate of 200 ppm, mixed ages on sunflower leaf discs, 6 days after infestation
Description: Example B10: Thrips tabaci (Onion Thrips)
as §1, with “in” for “in a”, “plates” for “plate”, “drying” for “drying,”, “a thrips” for “an aphid”

[9] = tested on: Frankliniella occidentalis (Western Flower Thrips); test: Frankliniella occidentalis (western flower thrips), sprayed sunflower leaf discs; conditions: foliar, 168 h, application rate of 200 ppm, mixed ages on sunflower leaf discs, 7 days after infestation
Description: Example B11: Frankliniella occidentalis (Western Flower Thrips)
as §1, with “in” for “in a”, “plates” for “plate”, “[…]” for “10′000 ppm”, “drying” for “drying,”, “a Frankliniella” for “an aphid”, “7” for “6”

[10] = tested on: Aedes aegypti (Yellow Fever Mosquito); test: Activity against Aedes aegypti (yellow fever mosquito), dried deposits in tissue culture plates; conditions: application rate of 200 ppm in ethanol, adult females, after 48 h
Description: Example B12: Activity Against Aedes aegypti (Yellow Fever Mosquito)
Test solutions, at an application rate of 200 ppm in ethanol, were applied to 12-well tissue culture plates. Once the deposits were dry, five, two to five days old adult female Aedes aegypti were added to each well, and sustained with a 10% sucrose solution in a cotton wool plug. Assessment of knockdown was made one hour after introduction, and mortality was assessed at 24 and 48 hours after introduction.
The following compounds gave at least 80% control of Aedes aegypti after 48 h: […]

[11] = tested on: Myzus persicae (Green Peach Aphid); test: Myzus persicae (green peach aphid), roots of pea seedlings in test solution; conditions: 144 h, test rate of 24 ppm, roots of infested pea seedlings in test solution, 6 days
Description: Example B5: Myzus persicae (Green Peach Aphid)
Roots of pea seedlings infested with an aphid population of mixed ages were placed directly in the aqueous test solutions prepared from 10′000 DMSO stock solutions. The samples were assessed for mortality 6 days after placing seedlings in test solutions.

CCS(=O)(=O)c1cc(-c2nccc(C(F)(F)F)n2)cnc1-c1nc2cc(C(F)(F)F)ncc2n1C [Compound P100]
≥ 80%: mortality at 200 ppm [1] | mortality at 200 ppm [2] | mortality at 200 ppm [3] | mortality at 200 ppm [4] | percent effect (mortality or growth inhibition) at 200 ppm [5] | percent control (mortality, anti-feedant effect or growth inhibition) at 200 ppm [6] | percent control (mortality, anti-feedancy or growth inhibition) at 12.5 ppm [7] | mortality at 200 ppm [8] | mortality at 200 ppm [9] | pest or weed control at 200 ppm [10]

CCS(=O)(=O)c1cc(-c2cncnc2)cnc1-c1nc2cc(C(F)(F)F)ncc2n1C [Compound P8]
≥ 80%: mortality at 200 ppm [1] | mortality at 200 ppm [3] | mortality at 200 ppm [4] | mortality at 24 ppm [11] | percent effect (mortality or growth inhibition) at 200 ppm [5] | percent control (mortality, anti-feedant effect or growth inhibition) at 200 ppm [6] | mortality at 200 ppm [8] | mortality at 200 ppm [9]

CCS(=O)(=O)c1cc(-c2ccccn2)cnc1-c1nc2cc(C(F)(F)F)ncc2n1C [Compound P18]
≥ 80%: mortality at 200 ppm [3] | mortality at 200 ppm [4] | mortality at 24 ppm [11] | percent effect (mortality or growth inhibition) at 200 ppm [5] | percent control (mortality, anti-feedant effect or growth inhibition) at 200 ppm [6] | percent control (mortality, anti-feedancy or growth inhibition) at 12.5 ppm [7] | mortality at 200 ppm [9] | pest or weed control at 200 ppm [10]

CCS(=O)(=O)c1cc(-c2ncc(C#N)cn2)cnc1-c1nc2cc(C(F)(F)F)ncc2n1C [Compound P111]
≥ 80%: mortality at 200 ppm [1] | mortality at 200 ppm [2] | mortality at 200 ppm [3] | mortality at 200 ppm [4] | mortality at 24 ppm [11] | percent effect (mortality or growth inhibition) at 200 ppm [5] | percent control (mortality, anti-feedant effect or growth inhibition) at 200 ppm [6] | mortality at 200 ppm [8] | mortality at 200 ppm [9] | pest or weed control at 200 ppm [10]

CCS(=O)(=O)c1cc(-n2cc(C(F)(F)F)cn2)cnc1-c1nc2cc(C(F)(F)F)ncc2n1C [Compound P85]
≥ 80%: mortality at 200 ppm [1] | mortality at 200 ppm [2] | mortality at 200 ppm [3] | mortality at 200 ppm [4] | percent effect (mortality or growth inhibition) at 200 ppm [5] | percent control (mortality, anti-feedant effect or growth inhibition) at 200 ppm [6] | percent control (mortality, anti-feedancy or growth inhibition) at 12.5 ppm [7] | mortality at 200 ppm [8] | mortality at 200 ppm [9] | pest or weed control at 200 ppm [10]

CCS(=O)(=O)c1cc(-n2cnc(Cl)n2)cnc1-c1nc2cc(C(F)(F)F)ncc2n1C [Compound P106]
≥ 80%: mortality at 200 ppm [1] | mortality at 200 ppm [2] | mortality at 200 ppm [3] | mortality at 200 ppm [4] | mortality at 24 ppm [11] | percent effect (mortality or growth inhibition) at 200 ppm [5] | percent control (mortality, anti-feedant effect or growth inhibition) at 200 ppm [6] | mortality at 200 ppm [8] | mortality at 200 ppm [9]

CCS(=O)(=O)c1cc(-c2ncccn2)ccc1-c1nc2cc(C(F)(F)F)ncc2n1C [Compound P89]
≥ 80%: mortality at 200 ppm [2] | mortality at 200 ppm [3] | mortality at 200 ppm [4] | percent effect (mortality or growth inhibition) at 200 ppm [5] | percent control (mortality, anti-feedant effect or growth inhibition) at 200 ppm [6] | percent control (mortality, anti-feedancy or growth inhibition) at 12.5 ppm [7] | mortality at 200 ppm [9] | pest or weed control at 200 ppm [10]

CCS(=O)(=O)c1cc(-c2ccc(C#N)cn2)cnc1-c1nc2cc(C(F)(F)F)ncc2n1C [Compound P91]
≥ 80%: mortality at 200 ppm [1] | mortality at 200 ppm [2] | mortality at 200 ppm [3] | mortality at 200 ppm [4] | percent effect (mortality or growth inhibition) at 200 ppm [5] | percent control (mortality, anti-feedant effect or growth inhibition) at 200 ppm [6] | percent control (mortality, anti-feedancy or growth inhibition) at 12.5 ppm [7] | mortality at 200 ppm [8] | mortality at 200 ppm [9]

CCS(=O)(=O)c1cc(-n2cc(Cl)cn2)cnc1-c1nc2cc(C(F)(F)F)ncc2n1C [Compound P16, 2-[5-(4-chloropyrazol-1-yl)-3-ethylsulfonyl-2-pyridyl]-3-methyl-6-(trifluoromethyl)imidazo[4,5-c]pyridine]
≥ 80%: mortality at 200 ppm [1] | mortality at 200 ppm [2] | mortality at 200 ppm [3] | mortality at 200 ppm [4] | percent effect (mortality or growth inhibition) at 200 ppm [5] | percent control (mortality, anti-feedant effect or growth inhibition) at 200 ppm [6] | percent control (mortality, anti-feedancy or growth inhibition) at 12.5 ppm [7] | mortality at 200 ppm [8] | mortality at 200 ppm [9] | pest or weed control at 200 ppm [10]

CCS(=O)(=O)c1cc(-c2ccc(Cl)cn2)cnc1-c1nc2cc(C(F)(F)F)ncc2n1C [Compound P20]
≥ 80%: mortality at 200 ppm [1] | mortality at 200 ppm [2] | mortality at 200 ppm [3] | mortality at 200 ppm [4] | percent effect (mortality or growth inhibition) at 200 ppm [5] | percent control (mortality, anti-feedant effect or growth inhibition) at 200 ppm [6] | percent control (mortality, anti-feedancy or growth inhibition) at 12.5 ppm [7] | mortality at 200 ppm [8] | mortality at 200 ppm [9] | pest or weed control at 200 ppm [10]

CCS(=O)(=O)c1cc(-c2ncc(Cl)cn2)cnc1-c1nc2cc(C(F)(F)F)ncc2n1C [Compound P11]
≥ 80%: mortality at 200 ppm [1] | mortality at 200 ppm [2] | mortality at 200 ppm [3] | mortality at 200 ppm [4] | percent effect (mortality or growth inhibition) at 200 ppm [5] | percent control (mortality, anti-feedant effect or growth inhibition) at 200 ppm [6] | percent control (mortality, anti-feedancy or growth inhibition) at 12.5 ppm [7] | mortality at 200 ppm [8] | mortality at 200 ppm [9] | pest or weed control at 200 ppm [10]

CCS(=O)(=O)c1cc(-c2ccc(C(F)(F)F)cn2)cnc1-c1nc2cc(C(F)(F)F)ncc2n1C [Compound P19]
≥ 80%: mortality at 200 ppm [1] | mortality at 200 ppm [2] | mortality at 200 ppm [3] | mortality at 200 ppm [4] | percent effect (mortality or growth inhibition) at 200 ppm [5] | percent control (mortality, anti-feedant effect or growth inhibition) at 200 ppm [6] | percent control (mortality, anti-feedancy or growth inhibition) at 12.5 ppm [7] | mortality at 200 ppm [9] | pest or weed control at 200 ppm [10]

CCS(=O)(=O)c1cc(-n2cc(Br)cn2)cnc1-c1nc2cc(C(F)(F)F)ncc2n1C [Compound P17]
≥ 80%: mortality at 200 ppm [1] | mortality at 200 ppm [2] | percent effect (mortality or growth inhibition) at 200 ppm [5] | percent control (mortality, anti-feedant effect or growth inhibition) at 200 ppm [6] | mortality at 200 ppm [8] | mortality at 200 ppm [9] | pest or weed control at 200 ppm [10]

CCS(=O)(=O)c1cc(-c2cc(Cl)ccn2)cnc1-c1nc2cc(C(F)(F)F)ncc2n1C [Compound P92]
≥ 80%: mortality at 200 ppm [2] | mortality at 200 ppm [3] | mortality at 200 ppm [4] | percent effect (mortality or growth inhibition) at 200 ppm [5] | percent control (mortality, anti-feedant effect or growth inhibition) at 200 ppm [6] | percent control (mortality, anti-feedancy or growth inhibition) at 12.5 ppm [7] | mortality at 200 ppm [9] | pest or weed control at 200 ppm [10]
